{"source": "patent US20040146959A1", "about": "“Fluorescent enzyme assay methods and compositions” (priority 2002, published 2004)", "key": {"protein kinase A": {"target": "T1, protein kinase A (Bos taurus, UniProt P00517)", "T1 construct": "purchased Promega (Madison, Wis.)", "experiment": "Detection of protein kinase activity, fluorescence increase (Examples 4B, 5B, 6B)", "type": "biochemical", "settings": "for time to maximum fluorescence: after addition of ATP (compounds 7, 8) or enzyme (compound 9); for fold increase in fluorescence: maximum vs starting fluorescence; for maximum fluorescence after start of the kinase reaction / fluorescence before start of the kinase reaction: substrate 1 μM; for maximum fluorescence after start of the kinase reaction: ATP 0.5 mM, protein kinase A 35 or 7 units; for fluorescence before start of the kinase reaction: Tris pH 8.1 20 mM, MgCl2 1 mM, 100 μL", "description": "Fluorescence data were collected on a Perkin-Elmer LS-50B luminescence spectrometer. […] ATP was added to a final concentration of 0.5 mM and the fluorescence monitored, reaching a maximum of 180 fluorescence units after 6 minutes, or a 5-fold increase.\nFluorescence data were collected on a Perkin-Elmer LS-50B luminescence spectrometer. […] ATP was added to a final concentration of 0.5 mM and the fluorescence monitored, reaching a maximum of 493 fluorescence units after 5 minutes, or a 3.5-fold increase.\nFluorescence data were collected on a Perkin-Elmer LS-50B luminescence spectrometer. […] Protein kinase A (7 Units) was added and the fluorescence monitored, reaching a maximum of 420 fluorescence units after 3 minutes, or an 8-fold increase."}, "PKC": {"test_system": "PKC", "experiment": "Phosphorylation assay of linker substrates (Table 3), PKC", "type": "biochemical", "settings": "substrate conc 4 or 6 uM (column Conc)", "description": "Protein kinase C reaction mixture aliquots (9 μL each) containing 2 μL 5× buffer (composed of 100 mM Tris, pH 8.1+25 mM MgCl2, and 0.5% v/v β-mercaptoethanol) 1 μL Upstate Lipid Activator, 0.05 μL Promega Protein Kinase C, 5.55 μL deionized water, and 0.4 μL substrate were added to wells of the 384 well plate. The reactions were initiated by the addition of 1 μL of Sigma-Aldrich ATP into each well."}, "PKA": {"target": "T2, PKA (Bos taurus, UniProt P00517)", "T2 construct": "purchased Promega (Madison, Wis.)", "experiment": "Phosphorylation assay of linker substrates (Table 3), PKA", "type": "biochemical", "settings": "substrate conc 8 uM"}, "Akt": {"target": "Akt (Homo sapiens, UniProt P31749)", "sequence (P31749 whole entry)": "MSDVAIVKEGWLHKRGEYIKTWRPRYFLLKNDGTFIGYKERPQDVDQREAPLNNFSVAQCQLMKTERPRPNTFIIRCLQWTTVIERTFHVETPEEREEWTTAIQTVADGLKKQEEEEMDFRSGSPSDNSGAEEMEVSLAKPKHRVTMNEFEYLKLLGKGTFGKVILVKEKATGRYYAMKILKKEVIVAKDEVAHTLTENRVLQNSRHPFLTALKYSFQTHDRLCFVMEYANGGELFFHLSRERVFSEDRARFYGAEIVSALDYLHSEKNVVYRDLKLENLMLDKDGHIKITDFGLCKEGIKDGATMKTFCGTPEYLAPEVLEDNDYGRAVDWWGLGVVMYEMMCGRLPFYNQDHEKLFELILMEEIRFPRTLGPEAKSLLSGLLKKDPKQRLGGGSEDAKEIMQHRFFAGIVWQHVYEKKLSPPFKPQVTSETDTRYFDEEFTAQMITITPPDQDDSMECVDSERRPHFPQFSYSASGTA", "experiment": "Phosphorylation assay of linker substrates (Table 3), Akt", "type": "biochemical", "settings": "substrate conc 8 uM"}, "Src, lyn, fyn": {"test_system": "Src, lyn, fyn", "experiment": "Phosphorylation assay of linker substrates (Table 3), Src, lyn, fyn", "type": "biochemical", "settings": "substrate conc 8 uM"}, "MAPKAP2": {"target": "MAPKAP2 (Homo sapiens, UniProt P49137)", "sequence (P49137 whole entry)": "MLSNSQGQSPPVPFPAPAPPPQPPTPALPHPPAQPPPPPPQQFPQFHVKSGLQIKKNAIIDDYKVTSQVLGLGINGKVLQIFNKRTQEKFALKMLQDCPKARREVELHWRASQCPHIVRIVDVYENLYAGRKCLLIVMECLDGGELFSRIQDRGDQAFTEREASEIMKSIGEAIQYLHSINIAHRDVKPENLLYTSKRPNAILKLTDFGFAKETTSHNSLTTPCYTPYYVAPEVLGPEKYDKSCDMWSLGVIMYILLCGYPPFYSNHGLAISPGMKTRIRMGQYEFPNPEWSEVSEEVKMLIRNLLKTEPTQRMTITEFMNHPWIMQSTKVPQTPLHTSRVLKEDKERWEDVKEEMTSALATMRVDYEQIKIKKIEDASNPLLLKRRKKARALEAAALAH", "experiment": "Phosphorylation assay of linker substrates (Table 3), MAPKAP2", "type": "biochemical", "settings": "substrate conc 8 uM"}, "MAPK": {"test_system": "MAPK", "experiment": "Phosphorylation assay of linker substrates (Table 3), MAPK", "type": "biochemical", "settings": "substrate conc 16 uM"}, "[1]": {"target": "T3, pp60^c-src-related protein tyrosine kinase (Homo sapiens, UniProt P12931)", "T3 construct": "purchased Upstate, Inc. (Lake Placid, N.Y.) 14-326", "experiment": "Detection of pp60c-src-related protein tyrosine kinase (Example 10B)", "type": "biochemical", "settings": "substrate 2.5 μM, 5 μL reaction volume, ATP 50 μM", "description": "Example 10 describes an assay for pp60^c-src-related protein tyrosine kinase. […] Enzyme reactions were performed in triplicate for a single substrate concentration, and two no-enzyme controls were also performed.\nFive wells of a Corning 384-well plate, black with a non-binding surface and low volume wells (cat. No. 3676) (Corning, Inc., Acton, Mass.) were used. Each well contained 5 μL of a solution containing compound 9 (2.5 μM), MgCl2 (1 mM), Tris buffer, pH 8.1 (20 mM) and src, active (1 unit, cat. No. 14-326). The kinase reaction was initiated in three of the wells by the addition of 1.25 μL of ATP (200 μM) to a final concentration of 50 μM."}, "[2]": {"target": "E. coli alkaline phosphatase (Escherichia coli, UniProt P00634)", "sequence (P00634 22-471)": "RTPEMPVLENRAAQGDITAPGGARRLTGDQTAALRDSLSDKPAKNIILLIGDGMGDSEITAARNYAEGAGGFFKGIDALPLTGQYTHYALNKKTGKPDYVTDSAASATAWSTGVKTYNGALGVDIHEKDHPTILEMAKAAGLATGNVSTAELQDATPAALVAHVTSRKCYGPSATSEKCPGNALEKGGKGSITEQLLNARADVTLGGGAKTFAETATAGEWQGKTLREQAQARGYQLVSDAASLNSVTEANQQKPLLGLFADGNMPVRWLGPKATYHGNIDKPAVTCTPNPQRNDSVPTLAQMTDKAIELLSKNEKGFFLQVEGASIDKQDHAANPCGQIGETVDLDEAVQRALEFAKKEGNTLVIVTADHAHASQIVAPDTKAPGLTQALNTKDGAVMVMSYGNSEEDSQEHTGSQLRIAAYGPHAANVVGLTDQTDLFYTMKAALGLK", "experiment": "Detection of phosphatase activity (Example 2B)", "type": "biochemical", "settings": "substrate 20 μM, Tris HCl pH 9, MgCl2 1 mM, 0.5 units enzyme", "description": "Phosphatase reactions were performed in a 100 μL reaction mixture containing compound 2 (20 μM), Tris HCl buffer (50 mM) at pH 9, and MgCl2 (1 mM). Reactions were initiated by adding 0.5 units of E. coli alkaline phosphatase in 1 to 5 μL. The fluorescence was monitored on a Perkin-Elmer LS-50B luminescence spectrometer with excitation at 480 nm and emission at 525 and slit widths at 5 nm."}, "[3]": {"test_system": "T4, compound 1, palmitoyl-FAM-S(OPO3^2-)LRRRRFSK(Ac)G-amide", "T4 sequence": "SLRRRRFSKG"}, "[4]": {"test_system": "CCCCCCCCCCCCCCCC(=O)NCc1ccc(C(=O)NCc2c(O)ccc3c2Oc2cc(O)ccc2C32OC(=O)c3cc(C(=O)N[C@@H](COP(=O)(O)O)C(=O)N[C@@H](CC(C)C)C(=O)N[C@@H](CCCNC(=N)N)C(=O)N[C@@H](CCCNC(=N)N)C(=O)N[C@@H](CCCNC(=N)N)C(=O)N[C@@H](CCCNC(=N)N)C(=O)N[C@@H](Cc4ccccc4)C(=O)N[C@@H](CO)C(=O)N[C@@H](CCCCNC(C)=O)C(=O)NCC(N)=O)ccc32)cc1", "experiment": "Protein kinase A detection, double reciprocal plot of initial velocities (Example 1B)", "type": "biochemical", "settings": "other: substrate 0.15, 0.3, 0.6 μM, Tris pH 8.5, Mg-ATP 1 mM, cAMP 1 μM, catalytic subunit 2 units", "description": "(1 μM), and different concentrations of compound 1 (0.15 μM, 0.3 μM, and 0.6 μM), to which the catalytic subunit of protein kinase A (2 units) was then added. Fluorescence was monitored on a Perkin-Elmer LS-50B luminescence spectrometer with 500 nm excitation and emission at 530 nm, and slit width at 5 nm."}}, "note": "Where no end group is shown, it is not given here. [ ]: non-standard residue; d: D form. The star is where a group is joined. C13 = acyl group coded C13, not further defined; C15 = acyl group coded C15, not further defined; C17 = acyl group coded C17, not further defined; Palmitoyl = CCCCCCCCCCCCCCCC(=O)*; pS = N[C@@H](COP(=O)(O)O)C(=O)O; K(dye2) = not defined here; OOO = not defined here"}
{"substance": "(5-carboxy-2,7-dipyridyl-sulfofluorescein)-K-(N-perfluoro-octanoyl-proline)-LRRASLG-amide [Compound 8]", "values": [{"measurement": "time to maximum fluorescence", "setting": "protein kinase A", "result": 5, "unit": "min"}, {"measurement": "fold increase in fluorescence", "setting": "protein kinase A", "result": 3.5, "unit": "fold"}, {"measurement": "maximum fluorescence after start of the kinase reaction", "setting": "protein kinase A", "result": 493, "unit": "fluorescence units"}, {"measurement": "fluorescence before start of the kinase reaction", "setting": "protein kinase A", "result": 140, "unit": "fluorescence units"}]}
{"substance": "(N-palmitoyl)-Lys(N-5-carboxy-2,′7′-dipyridyl-sulfofluorescein)-OOO-RREGSFR-amide (RREGSFR-NH2; not fully specified (N-terminus); printed as C16-OOOK(dye2)-RREGSFR-NH2) [Compound 10]", "values": [{"measurement": "Fold increase", "setting": "PKC", "result": 4.5, "unit": "×"}, {"measurement": "RFUs at 10 uL (final)", "setting": "PKC", "result": 3000, "unit": "RFUs"}, {"measurement": "RFUs at 10 uL (initial)", "setting": "PKC", "result": 650, "unit": "RFUs"}]}
{"substance": "C13-K(dye2)-LRRASLG-NH2 ({C13-K(dye2)}-LRRASLG-NH2; reading uncertain; also: printed as C13-K(dye2)-LRRASLG-NH2) [PKA substrate; dye2 = 5-carboxy-2′,7′-dipyridyl-sulfonefluorescein]", "values": [{"measurement": "Fold increase", "setting": "PKA", "result": 5, "unit": "×"}, {"measurement": "RFUs at 10 uL (final)", "setting": "PKA", "result": 5000, "unit": "RFUs"}, {"measurement": "RFUs at 10 uL (initial)", "setting": "PKA", "result": 1000, "unit": "RFUs"}]}
{"substance": "C13-OOOK(dye2)-LRRASLG-NH2 (not fully specified (N-terminus); printed as C13-OOOK(dye2)-LRRASLG-NH2) [PKA substrate; O = 2-aminoethoxy-2-ethoxyacetyl linker]", "values": [{"measurement": "Fold increase", "setting": "PKA", "result": 5, "unit": "×"}, {"measurement": "RFUs at 10 uL (final)", "setting": "PKA", "result": 5000, "unit": "RFUs"}, {"measurement": "RFUs at 10 uL (initial)", "setting": "PKA", "result": 1000, "unit": "RFUs"}]}
{"substance": "C15-OOOK(dye2)RPRTSSF-NH2 ({C15-OOO-K(dye2)}-RPRTSSF-NH2; reading uncertain; also: printed as C15-OOOK(dye2)RPRTSSF-NH2) [Akt substrate]", "values": [{"measurement": "Fold increase", "setting": "Akt", "result": 4, "unit": "×"}, {"measurement": "RFUs at 10 uL (final)", "setting": "Akt", "result": 7500, "unit": "RFUs"}, {"measurement": "RFUs at 10 uL (initial)", "setting": "Akt", "result": 1500, "unit": "RFUs"}]}
{"substance": "C16-OOOK(dye2)RIGEGTYGVVRR-NH2 ({Palmitoyl-OOO-K(dye2)}-RIGEGTYGVVRR-NH2; reading uncertain; also: printed as C16-OOOK(dye2)RIGEGTYGVVRR-NH2) [Src, lyn, fyn substrate]", "values": [{"measurement": "Fold increase", "setting": "Src, lyn, fyn", "result": 6.5, "unit": "×"}, {"measurement": "RFUs at 10 uL (final)", "setting": "Src, lyn, fyn", "result": 6500, "unit": "RFUs"}, {"measurement": "RFUs at 10 uL (initial)", "setting": "Src, lyn, fyn", "result": 1000, "unit": "RFUs"}]}
{"substance": "C16-OOOK(dye2)RLNRTLSV-NH2 ({Palmitoyl-OOO-K(dye2)}-RLNRTLSV-NH2; reading uncertain; also: printed as C16-OOOK(dye2)RLNRTLSV-NH2) [MAPKAP2 substrate]", "values": [{"measurement": "Fold increase", "setting": "MAPKAP2", "result": 4, "unit": "×"}, {"measurement": "RFUs at 10 uL (final)", "setting": "MAPKAP2", "result": 3200, "unit": "RFUs"}, {"measurement": "RFUs at 10 uL (initial)", "setting": "MAPKAP2", "result": 800, "unit": "RFUs"}]}
{"substance": "C17-OOOK(dye2)PRTPGGR-NH2 ({C17-OOO-K(dye2)}-PRTPGGR-NH2; reading uncertain; also: printed as C17-OOOK(dye2)PRTPGGR-NH2) [MAPK substrate]", "values": [{"measurement": "Fold increase", "setting": "MAPK", "result": 5, "unit": "×"}, {"measurement": "RFUs at 10 uL (final)", "setting": "MAPK", "result": 5700, "unit": "RFUs"}, {"measurement": "RFUs at 10 uL (initial)", "setting": "MAPK", "result": 1100, "unit": "RFUs"}]}
{"substance": "C17-OOOK(tet)-RQGSFRA-NH2 ({C17-OOO-K(TET)}-RQGSFRA-NH2; reading uncertain; also: printed as C17-OOOK(tet)-RQGSFRA-NH2) [PKC substrate; tet = 2′,7′,4,7-tetachloro-5-carboxy fluorescein]", "values": [{"measurement": "Fold increase", "setting": "PKC", "result": 7, "unit": "×"}, {"measurement": "RFUs at 10 uL (final)", "setting": "PKC", "result": 4900, "unit": "RFUs"}, {"measurement": "RFUs at 10 uL (initial)", "setting": "PKC", "result": 700, "unit": "RFUs"}]}
{"substance": "N-(1H, 1H,2H,2H-Perfluorodecyl-1-thiol-2-acetyl)-K-(5-carboxysulfofluorescein) LRRASL-G-amide [Compound 7]", "values": [{"measurement": "time to maximum fluorescence", "setting": "protein kinase A", "result": 6, "unit": "min"}, {"measurement": "fold increase in fluorescence", "setting": "protein kinase A", "result": 5, "unit": "fold"}, {"measurement": "maximum fluorescence after start of the kinase reaction", "setting": "protein kinase A", "result": 180, "unit": "fluorescence units"}, {"measurement": "fluorescence before start of the kinase reaction", "setting": "protein kinase A", "result": 35, "unit": "fluorescence units"}]}
{"substance": "N-AcetylRGRPRTSSFAEG-OOOK(N-5-Carboxysulfo-fluroescein)K(N-Octadecanoyl)-amide [Compound 9]", "values": [{"measurement": "time to maximum fluorescence", "setting": "protein kinase A", "result": 3, "unit": "min"}, {"measurement": "fold increase in fluorescence", "setting": "protein kinase A", "result": 8, "unit": "fold"}, {"measurement": "maximum fluorescence after start of the kinase reaction", "setting": "protein kinase A", "result": 420, "unit": "fluorescence units"}, {"measurement": "fluorescence before start of the kinase reaction", "setting": "protein kinase A", "result": 50, "unit": "fluorescence units"}]}
{"substance": "N-palmitoyl-Lys(ε-N-5-carboxy-sulfonefluorescein)KVEKIGEGTYGVVKK-amide ({Palmitoyl-K(5-carboxy-sulfonefluorescein)}-KVEKIGEGTYGVVKK-NH2) [Compound 13]", "values": [{"measurement": "fluorescent signal on reaction with kinase", "setting": "[1]", "result": "a strong fluorescent signal with high signal-to-noise was observed"}]}
{"substance": "palmitoyl-LRRRRFS(OPO3^2−)K(5-FAM)G-amide (Palmitoyl-LRRRRF[pS]-{K(5-FAM)-Gly-NH2}) [Compound 2]", "values": [{"measurement": "change in fluorescence over time on reaction with phosphatase", "setting": "[2]", "result": "immediate and significant increase in fluorescence over time"}]}
{"substance": "protein kinase A", "values": [{"measurement": "Km (double reciprocal plot of initial velocities, fluorescence kinase assay)", "setting": "[3]", "result": "a Km value of 0.3 µM"}]}
{"substance": "protein kinase A (Bos taurus)", "values": [{"measurement": "Km", "setting": "[4]", "result": 0.3, "unit": "µM"}]}
